From article PMC5411959, “Potential Antiosteoporotic Natural Product Lead Compounds That Inhibit 17β-Hydroxysteroid Dehydrogenase Type 2” (Journal of Natural Products, 2017)

What was measured:
human 17β-HSD1 = biological target: T1, human 17β-HSD1 (Homo sapiens, UniProt P14061); test: 17β-HSD1 activity assay using lysates of HEK-293 cells expressing the recombinant human enzyme; format: biochemical; conditions: for 17β-HSD1 inhibition (in words; n.i. = no inhibition): screened at 20 μM
T1 construct: expressed in transfected cells; host or cells: HEK-293 (ATCC), used as cell lysate
T1 sequence (P14061 1-328): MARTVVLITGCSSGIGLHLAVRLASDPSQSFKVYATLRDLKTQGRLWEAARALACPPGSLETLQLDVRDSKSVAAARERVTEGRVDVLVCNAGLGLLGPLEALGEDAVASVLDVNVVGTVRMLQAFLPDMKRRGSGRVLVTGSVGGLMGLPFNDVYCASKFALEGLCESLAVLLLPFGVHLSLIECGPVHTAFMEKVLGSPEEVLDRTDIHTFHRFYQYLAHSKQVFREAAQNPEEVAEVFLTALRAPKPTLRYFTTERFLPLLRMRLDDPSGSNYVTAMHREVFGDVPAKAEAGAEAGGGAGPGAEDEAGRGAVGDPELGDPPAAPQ

human 17β-HSD2 = biological target: T2, human 17β-HSD2 (Homo sapiens, UniProt P37059); test: 17β-HSD2 activity assay using lysates of HEK-293 cells expressing the recombinant human enzyme; format: biochemical; conditions: for IC50: HEK-293 lysates, 200 nM estradiol, 500 μM NAD+, 10 min 37 °C; for remaining activity at 20 µM: read-out: 17β-HSD2 remaining activity at 20 μM (% of control); for 17β-HSD2 inhibition (in words): tested at 20 μM;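 for all read-outs here: conversion of tritium-labelled estradiol (200 nM, with 500 µM NAD+, 10 min) quantified after TLC separation by scintillation counting, at least three independent measurements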
T2 construct: expressed in transfected cells; host or cells: HEK-293 (ATCC), used as cell lysate
T2 sequence (P37059 1-387): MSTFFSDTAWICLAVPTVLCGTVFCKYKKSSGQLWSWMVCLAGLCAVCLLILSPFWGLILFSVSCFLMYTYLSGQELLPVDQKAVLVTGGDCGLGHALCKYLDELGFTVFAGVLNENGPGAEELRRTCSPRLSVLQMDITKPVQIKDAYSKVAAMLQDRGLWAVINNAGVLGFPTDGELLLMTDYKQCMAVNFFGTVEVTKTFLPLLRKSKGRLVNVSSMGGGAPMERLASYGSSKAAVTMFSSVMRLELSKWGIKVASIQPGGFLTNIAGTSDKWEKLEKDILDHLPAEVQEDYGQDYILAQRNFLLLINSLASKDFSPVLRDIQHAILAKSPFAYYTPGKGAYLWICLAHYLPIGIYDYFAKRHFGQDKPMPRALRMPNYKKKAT

17β-HSD2 = tested on: 17β-HSD2; set-up: method as in PMID 18533708; conditions: cited from earlier work; for activity: 40 μM, read-out: inhibition of 17β-HSD2: % residual activity at 40 μM; for activity / IC50: mean ± SD; for classification (17β-HSD2 inhibition): flavonoid SAR model, Table 4; for IC50: read-out: inhibition of 17β-HSD2: IC50 (μM)
[1] = 20 μM compound, % of vehicle control

| Compound | activity (17β-HSD2) | classification (17β-HSD2 inhibition) (17β-HSD2) | also measured |
| --- | --- | --- | --- |
| O=C(/C=C/c1ccc(O)c(O)c1)O[C@H](Cc1ccc(O)c(O)c1)C(=O)O [compound 11, rosmarinic acid] |  |  | 17β-HSD1 inhibition (in words; n.i. = no inhibition) (human 17β-HSD1): n.i. ^a; IC50 (human 17β-HSD2): 3.72 ± 0.17 µM |
| CCOC(=O)c1ccc(O)c(OC)c1 [compound 12, ethyl vanillate] |  |  | 17β-HSD1 inhibition (in words; n.i. = no inhibition) (human 17β-HSD1): n.i.; IC50 (human 17β-HSD2): 1.28 ± 0.26 µM |
| O=C(Cc1ccc(O)c(Cl)c1)NCCc1ccccc1 [compound 13, 2-(3-chloro-4-hydroxyphenyl)-N-phenethylacetamide] |  |  | 17β-HSD1 inhibition (in words; n.i. = no inhibition) (human 17β-HSD1): n.i.; IC50 (human 17β-HSD2): 1.57 ± 0.16 µM |
| COCCNC(=O)Cc1ccc(O)c(Cl)c1 [compound 14, 2-(3-chloro-4-hydroxyphenyl)-N-(2-methoxyethyl)acetamide] |  |  | remaining activity at 20 µM (human 17β-HSD2; [1]): 37 ± 3%; 17β-HSD2 inhibition (in words) (human 17β-HSD2): moderately active |
| CCCCNC(=O)Cc1ccc(O)c(Cl)c1 [compound 15, N-butyl-2-(3-chloro-4-hydroxyphenyl)acetamide] |  |  | remaining activity at 20 µM (human 17β-HSD2; [1]): 33 ± 6%; 17β-HSD2 inhibition (in words) (human 17β-HSD2): moderately active |
| O=C(Cc1ccc(O)c(Cl)c1)NCc1ccccc1 [compound 16, N-benzyl-2-(3-chloro-4-hydroxyphenyl)acetamide] |  |  | 17β-HSD1 inhibition (in words; n.i. = no inhibition) (human 17β-HSD1): n.i.; IC50 (human 17β-HSD2): 3.42 ± 0.74 µM |
| O=C(Cc1ccc(O)c(Cl)c1)NCCc1c[nH]c2ccccc12 [compound 17, N-(2-(1H-indol-3-yl)ethyl)-2-(3-chloro-4-hydroxyphenyl)acetamide] |  |  | 17β-HSD1 inhibition (in words; n.i. = no inhibition) (human 17β-HSD1): n.i.; IC50 (human 17β-HSD2): 0.98 ± 0.24 µM |
| O=C(Cc1ccc(O)c(Cl)c1)NCc1ccccc1Cl [compound 18, 2-(3-chloro-4-hydroxyphenyl)-N-(2-chlorobenzyl)acetamide] |  |  | remaining activity at 20 µM (human 17β-HSD1; 20 μM compound, read-out: 17β-HSD1 remaining activity at 20 μM): 54.8 ± 5.8%; selectivity factor (human 17β-HSD1; 17β-HSD1 versus 17β-HSD2): ∼25; IC50 (human 17β-HSD2): 0.78 ± 0.16 µM |
| O=C1CC(c2ccccc2)Oc2ccccc21 (stereo not shown) [compound 19, flavanone] | 70.7 ± 2.6% | inactive^24 |  |
| O=C1CC(c2ccccc2O)Oc2ccccc21 (stereo not shown) [compound 20, 2´-hydroxyflavanone] | 50.7 ± 0.5% | inactive^24 |  |
| O=C1CC(c2ccc(O)cc2)Oc2ccccc21 (stereo not shown) [compound 21, 4´-hydroxyflavanone] | 63.6 ± 3.5% | inactive^24 |  |
| O=C1CC(c2ccccc2)Oc2ccc(O)cc21 (stereo not shown) [compound 22, 6-hydroxyflavanone] | 42.5 ± 1.8% | inactive^24 |  |
| O=C1C[C@@H](c2ccc(O)cc2)Oc2cc(O)cc(O)c21 [compound 23, naringenin] |  | active^24 | IC50 (17β-HSD2): 14.4 ± 4.5 µM |
| COc1ccc([C@@H]2CC(=O)c3c(O)cc(O)cc3O2)cc1O [compound 24, hesperetin] | 36.4 ± 1.7% | inactive^24 |  |
| O=c1cc(-c2ccccc2)oc2ccccc12 [compound 25, flavone] | 63.9 ± 0.6% | inactive^24 |  |
| O=c1cc(-c2ccccc2)oc2cc(O)ccc12 [compound 26, 7-hydroxyflavone] | 23.1 ± 1.1% | weak^24 | IC50 (17β-HSD2): > 20 µM |
| O=c1cc(-c2ccccc2)oc2cc(O)cc(O)c12 [compound 27, chrysin] | 32.8 ± 5.1% | inactive^24 |  |
| O=c1c(-c2ccc(O)cc2)coc2cc(O)ccc12 [compound 28, daidzein] | 58.3 ± 6.1% | inactive^24 |  |
| O=c1cc(-c2ccc(O)cc2)oc2cc(O)cc(O)c12 [compound 29, apigenin] | 25.2 ± 0.9% | weak^24 | IC50 (17β-HSD2): > 20 µM |
| O=c1c(O)c(-c2ccc(O)cc2)oc2cc(O)cc(O)c12 [compound 30, kaempferol] |  | active^24 | IC50 (17β-HSD2): 0.36 ± 0.04 µM |
| O=c1c(O)c(-c2ccc(O)c(O)c2)oc2cc(O)cc(O)c12 [compound 31, quercetin] |  | active^24 | IC50 (17β-HSD2): 1.54 ± 0.22 µM |
| O=c1c(-c2ccc(O)cc2)coc2cc(O)cc(O)c12 [compound 32, genistein] |  | active^24 |  |
| COc1ccc(-c2coc3cc(O)cc(O)c3c2=O)cc1 [compound 33, biochanin A] |  | active^24 | IC50 (17β-HSD2): 9.9 ± 1.87 µM |
| pestalactam A [S13] |  |  | 17β-HSD2 remaining activity at 20 μM (% of control) (human 17β-HSD2; [1]): 85 ± 11% |
